Source: the supplement of paper PMC7214452

Assays:
Experiment in all cases: normalized area under the dose-response curve (viability relative to DMSO control) (fraction); higher = less sensitive (more viable cells)
Details in all cases: exposure time not given
[1] = system: RPMI 8226 (cancer type: MM)
Experimental: (§1)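 25 myeloma and 15 non-Hodgkin lymphoma cell lines were exposed to each of 76 drugs as 7-point log dilutions (0.01 nM–10 µM) in duplicate. Viability was read with CellTiter-Glo and normalised to DMSO (0.1%) and staurosporine (10 µM) plate controls. Normalised AUC was calculated by the trapezoidal method relative to the negative control.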

SKMM2 (cancer type: MM) = system: SKMM2 (cancer type: MM)
Experimental: as §1

Se-Ax (cancer type: TCL) = system: Se-Ax (cancer type: TCL)
Experimental: as §1

[2] = system: OCI-LY3 (cancer type: DLBCL)
Experimental: as §1

[3] = system: SU-DHL1 (cancer type: TCL)
Experimental: as §1

EJM (cancer type: MM) = system: EJM (cancer type: MM)
Experimental: as §1

L363 (cancer type: MM) = system: L363 (cancer type: MM)
Experimental: as §1

JJN3 (cancer type: MM) = system: JJN3 (cancer type: MM)
Experimental: as §1

U266 (cancer type: MM) = system: U266 (cancer type: MM)
Experimental: as §1

[4] = system: HuT 78 (cancer type: TCL)
Experimental: as §1

[5] = system: OCI-MY5/Vec (cancer type: MM)
Experimental: as §1

[6] = system: JeKo-1 (cancer type: Mantle)
Experimental: as §1

[7] = system: OCI-MY5/CRBN (cancer type: MM)
Experimental: as §1

[8] = system: SU-DHL6 (cancer type: DLBCL)
Experimental: as §1

[9] = system: KMS28BM (cancer type: MM)
Experimental: as §1

[10] = system: Mino (cancer type: Mantle)
Experimental: as §1

MM1.R (cancer type: MM) = system: MM1.R (cancer type: MM)
Experimental: as §1

My-La (cancer type: TCL) = system: My-La (cancer type: TCL)
Experimental: as §1

[11] = system: OCI-LY19 (cancer type: DLBCL)
Experimental: as §1

[12] = system: KMS12PE (cancer type: MM)
Experimental: as §1

KMS34 (cancer type: MM) = system: KMS34 (cancer type: MM)
Experimental: as §1

KMS18 (cancer type: MM) = system: KMS18 (cancer type: MM)
Experimental: as §1

XG2 (cancer type: MM) = system: XG2 (cancer type: MM)
Experimental: as §1

[13] = system: KMS28PE (cancer type: MM)
Experimental: as §1

[14] = system: Granta-519 (cancer type: Mantle)
Experimental: as §1

KMS11 (cancer type: MM) = system: KMS11 (cancer type: MM)
Experimental: as §1

[15] = system: OCI-MY7 (cancer type: MM)
Experimental: as §1

[16] = system: NCI-H929 (cancer type: MM)
Experimental: as §1

AMO1 (cancer type: MM) = system: AMO1 (cancer type: MM)
Experimental: as §1

[17] = system: Karpas-299 (cancer type: TCL)
Experimental: as §1

[18] = system: SR-786 (cancer type: TCL)
Experimental: as §1

[19] = system: OCI-LY1 (cancer type: DLBCL)
Experimental: as §1

KMS26 (cancer type: MM) = system: KMS26 (cancer type: MM)
Experimental: as §1

OPM2 (cancer type: MM) = system: OPM2 (cancer type: MM)
Experimental: as §1

LP1 (cancer type: MM) = system: LP1 (cancer type: MM)
Experimental: as §1

[20] = system: OCI-MY5 (cancer type: MM)
Experimental: as §1

FR4 (cancer type: MM) = system: FR4 (cancer type: MM)
Experimental: as §1

MM1.S (cancer type: MM) = system: MM1.S (cancer type: MM)
Experimental: as §1

[21] = system: SU-DHL2 (cancer type: DLBCL)
Experimental: as §1

[22] = system: JVM2 (cancer type: Mantle)
Experimental: as §1

| SMILES | normalized area under the dose-response curve [1] | normalized area under the dose-response curve (SKMM2 (cancer type: MM)) | normalized area under the dose-response curve (Se-Ax (cancer type: TCL)) | normalized area under the dose-response curve [2] | normalized area under the dose-response curve [3] | normalized area under the dose-response curve (EJM (cancer type: MM)) | normalized area under the dose-response curve (L363 (cancer type: MM)) | normalized area under the dose-response curve (JJN3 (cancer type: MM)) | normalized area under the dose-response curve (U266 (cancer type: MM)) | normalized area under the dose-response curve [4] | normalized area under the dose-response curve [5] | normalized area under the dose-response curve [6] | normalized area under the dose-response curve [7] | normalized area under the dose-response curve [8] | normalized area under the dose-response curve [9] | normalized area under the dose-response curve [10] | normalized area under the dose-response curve (MM1.R (cancer type: MM)) | normalized area under the dose-response curve (My-La (cancer type: TCL)) | normalized area under the dose-response curve [11] | normalized area under the dose-response curve [12] | normalized area under the dose-response curve (KMS34 (cancer type: MM)) | normalized area under the dose-response curve (KMS18 (cancer type: MM)) | normalized area under the dose-response curve (XG2 (cancer type: MM)) | normalized area under the dose-response curve [13] | normalized area under the dose-response curve [14] | normalized area under the dose-response curve (KMS11 (cancer type: MM)) | normalized area under the dose-response curve [15] | normalized area under the dose-response curve [16] | normalized area under the dose-response curve (AMO1 (cancer type: MM)) | normalized area under the dose-response curve [17] | normalized area under the dose-response curve [18] | normalized area under the dose-response curve [19] | normalized area under the dose-response curve (KMS26 (cancer type: MM)) | normalized area under the dose-response curve (OPM2 (cancer type: MM)) | normalized area under the dose-response curve (LP1 (cancer type: MM)) | normalized area under the dose-response curve [20] | normalized area under the dose-response curve (FR4 (cancer type: MM)) | normalized area under the dose-response curve (MM1.S (cancer type: MM)) | normalized area under the dose-response curve [21] | normalized area under the dose-response curve [22] |
| --- | --- | --- | --- | --- | --- | --- | --- | --- | --- | --- | --- | --- | --- | --- | --- | --- | --- | --- | --- | --- | --- | --- | --- | --- | --- | --- | --- | --- | --- | --- | --- | --- | --- | --- | --- | --- | --- | --- | --- | --- |
| CNC(=O)c1cc(Oc2ccc(NC(=O)Nc3ccc(Cl)c(C(F)(F)F)c3)cc2)ccn1 [Sorafenib] | 0.546 | 0.56 | 0.655 | 0.955 | 0.576 | 0.663 | 0.578 | 0.435 | 0.45 | 0.704 | 0.499 | 0.922 | 0.589 | 0.937 | 0.611 | 0.872 | 0.61 | 0.836 | 0.873 | 0.6 | 0.239 | 0.471 | 0.543 | 0.752 | 0.877 | 0.535 | 0.59 | 0.57 | 0.578 | 0.812 | 0.824 | 0.913 | 0.634 | 0.539 | 0.495 | 0.459 | 0.594 | 0.57 | 0.901 | 0.747 |
| CCN(CC)CCNC(=O)c1c(C)[nH]c(/C=C2\C(=O)Nc3ccc(F)cc32)c1C [Sunitinib] | 0.538 | 0.734 | 0.69 | 0.892 | 0.541 | 0.587 | 0.648 | 0.638 | 0.698 | 0.536 | 0.82 | 0.729 | 0.816 | 0.875 | 0.739 | 0.761 | 0.61 | 0.772 | 0.794 | 0.7 | 0.459 | 0.665 | 0.46 | 0.519 | 0.863 | 0.641 | 0.72 | 0.56 | 0.519 | 0.722 | 0.652 | 0.818 | 0.714 | 0.56 | 0.651 | 0.576 | 0.681 | 0.58 | 0.8 | 0.605 |
| CO[C@H]1C[C@@H]2CC[C@@H](C)[C@@](O)(O2)C(=O)C(=O)N2CCCC[C@H]2C(=O)O[C@H]([C@H](C)C[C@@H]2CC[C@@H](OC(=O)C(C)(CO)CO)[C@H](OC)C2)CC(=O)[C@H](C)/C=C(\C)[C@@H](O)[C@@H](OC)C(=O)[C@H](C)C[C@H](C)/C=C/C=C/C=C/1C [Temsirolimus] | 0.763 | 0.912 | 0.663 | 0.648 | 0.71 | 0.823 | 0.7 | 0.774 | 0.752 | 0.722 | 0.884 | 0.744 | 0.772 | 0.72 | 0.859 | 0.691 | 0.68 | 0.764 | 0.697 | 0.69 | 0.559 | 0.754 | 0.725 | 0.696 | 0.695 | 0.752 | 0.79 | 0.74 | 0.695 | 0.585 | 0.745 | 0.685 | 0.978 | 0.749 | 0.746 | 0.775 | 0.789 | 0.63 | 0.576 | 0.559 |
| C[C@@H]1CCN(C(=O)CC#N)C[C@@H]1N(C)c1ncnc2[nH]ccc12 [Tofacitinib] | 1 | 0.978 | 0.929 | 0.952 | 0.97 | 0.941 | 0.904 | 0.966 | 0.874 | 0.879 | 1.02 | 1.05 | 0.97 | 0.969 | 0.962 | 0.957 | 0.92 | 0.877 | 0.996 | 1.01 | 0.89 | 1.01 | 0.838 | 0.936 | 0.94 | 0.933 | 0.95 | 0.92 | 0.901 | 0.891 | 0.856 | 0.994 | 0.957 | 0.938 | 0.858 | 0.944 | 1 | 0.85 | 0.93 | 0.931 |
| CC(=O)Nc1cccc(-n2c(=O)n(C3CC3)c(=O)c3c(Nc4ccc(I)cc4F)n(C)c(=O)c(C)c32)c1 [Trametinib] | 0.909 | 0.964 | 0.713 | 0.865 | 0.501 | 0.838 | 0.835 | 0.858 | 0.922 | 0.672 | 0.943 | 0.986 | 0.969 | 0.841 | 0.861 | 0.948 | 0.67 | 0.868 | 0.898 | 0.8 | 0.681 | 0.779 | 0.727 | 0.867 | 0.913 | 0.869 | 0.67 | 0.6 | 0.575 | 0.794 | 0.877 | 0.908 | 0.774 | 0.719 | 0.64 | 0.764 | 0.967 | 0.71 | 0.77 | 0.561 |
| COc1cc2/c(=N/c3ccc(Br)cc3F)nc[nH]c2cc1OCC1CCN(C)CC1 [Vandetanib] | 0.905 | 0.963 | 0.784 | 0.993 | 0.77 | 0.672 | 0.795 | 0.873 | 0.746 | 0.892 | 0.908 | 0.937 | 0.95 | 0.96 | 0.985 | 0.921 | 0.87 | 0.906 | 0.969 | 0.95 | 0.623 | 0.774 | 0.726 | 0.844 | 0.892 | 0.777 | 0.96 | 0.87 | 0.767 | 0.896 | 0.961 | 0.918 | 0.962 | 0.861 | 0.684 | 0.784 | 0.922 | 0.86 | 0.911 | 0.773 |
| CCCS(=O)(=O)Nc1ccc(F)c(C(=O)c2c[nH]c3ncc(-c4ccc(Cl)cc4)cc23)c1F [Vemurafenib] | 0.975 | 0.994 | 0.673 | 0.951 | 0.867 | 0.902 | 0.898 | 0.784 | 0.8 | 0.964 | 0.998 | 0.971 | 0.958 | 0.92 | 1.28 | 0.917 | 0.97 | 0.976 | 0.912 | 0.91 | 0.765 | 0.938 | 1 | 0.998 | 0.957 | 0.909 | 0.94 | 0.79 | 0.808 | 0.969 | 0.98 | 0.933 | 0.965 | 0.936 | 0.89 | 0.788 | 0.825 | 0.95 | 0.972 | 0.924 |
| CC1(C)CCC(CN2CCN(c3ccc(C(=O)NS(=O)(=O)c4ccc(NCC5CCOCC5)c([N+](=O)[O-])c4)c(Oc4cnc5[nH]ccc5c4)c3)CC2)=C(c2ccc(Cl)cc2)C1 [Venetoclax] | 0.481 | 0.0382 | 0.196 | 0.179 | 0.696 | 0.615 | 0.584 | 0.354 | 0.366 | 0.752 | 0.0321 | 0.686 | 0.0571 | 0.0483 | 0.119 | 0.876 | 0.48 | 0.872 | 0.247 | 0.09 | 0.525 | 0.514 | 0.846 | 0.251 | 0.212 | 0.591 | 0.14 | 0.82 | 0.64 | 0.829 | 0.952 | 0.176 | 0.919 | 0.371 | 0.817 | 0.101 | 0.617 | 0.57 | 0.982 | 0.73 |
